Calls of active or inactive are those of the source. No cut-off for these calls is given here.
Experiments:
[1] = Toxicity in Hartley guinea pig lung assessed as formation of TB lesions by histological analysis; parameters: species or system Cavia porcellus; conditions: in vivo
[2] = system: Mycobacterium tuberculosis; test: Antibacterial activity against Mycobacterium tuberculosis infected in Hartley guinea pig lung assessed as reduction in development of new secondary lesions at 100 mg/kg after 4 weeks by histological analysis relative to control; type: functional, organism-based; parameters: dose 100 mg/kg
[3] = system: Mycobacterium tuberculosis; test: Antibacterial activity against Mycobacterium tuberculosis infected in Hartley guinea pig lung assessed as reduction in bacterial load at 100 mg/kg; type: functional, organism-based; parameters: dose 100 mg/kg
[4] = system: Mycobacterium tuberculosis; test: Antibacterial activity against Mycobacterium tuberculosis infected in Hartley guinea pig spleen assessed as reduction in bacterial load at 100 mg/kg; type: functional, organism-based; parameters: dose 100 mg/kg
[5] = system: Mycobacterium tuberculosis; test: Antibacterial activity against Mycobacterium tuberculosis infected in Hartley guinea pig lung assessed as reduction in bacteria induced progression of inflammation at 100 mg/kg after 4 weeks by histological analysis relative to control; type: functional, organism-based; parameters: dose 100 mg/kg
[6] = system: Mycobacterium tuberculosis; test: Antibacterial activity against Mycobacterium tuberculosis infected in Hartley guinea pig lung assessed as reduction in bacteria induced progression of inflammation at 30 mg/kg after 4 weeks by histological analysis relative to control; type: functional, organism-based; parameters: dose 30 mg/kg
[7] = system: Mycobacterium tuberculosis; test: Antibacterial activity against Mycobacterium tuberculosis infected in Hartley guinea pig lung assessed as reduction in bacterial load at 30 mg/kg; type: functional, organism-based; parameters: dose 30 mg/kg
[8] = system: Mycobacterium tuberculosis; test: Antibacterial activity against Mycobacterium tuberculosis infected in Hartley guinea pig lung assessed as reduction in development of new secondary lesions at 30 mg/kg after 4 weeks by histological analysis relative to control; type: functional, organism-based; parameters: dose 30 mg/kg
[9] = system: Mycobacterium tuberculosis; test: Antibacterial activity against Mycobacterium tuberculosis infected in Hartley guinea pig spleen assessed as reduction in bacterial load at 30 mg/kg; type: functional, organism-based; parameters: dose 30 mg/kg

Row | SMILES | Activity [1] | Activity [2] | Activity [3] | Activity [4] | Activity [5] | Activity [6] | Activity [7] | Activity [8] | Activity [9]
1 | Cc1ncc([N+](=O)[O-])n1CCO [METRONIDAZOLE] | Toxic | inactive | inactive | inactive | inactive | – | – | – | –
2 | NNC(=O)c1ccncc1 | – | – | – | – | – | Active | Active | Active | Active

Source: ChEMBL document CHEMBL1275520, “Metronidazole lacks antibacterial activity in guinea pigs infected with Mycobacterium tuberculosis” (Antimicrob Agents Chemother, 2008)
